According to US20210330611A1, “THERAPY FOR NEUROLOGICAL DISEASES/DISORDERS” (priority 2020, published 2021):
Counter-ions that a name gives are not always drawn. Like-named read-outs stand apart in the source and are kept apart here.

Legend:
[1] = system: fibrin-induced microglia activation; experiment: Image-based assay of fibrin-induced microglia activation (HTS and dose response); format: cell-based, rat; conditions: for inhibition at 10 µM: Rattus norvegicus, Microglia, read-out: Fibrin % inhibition
primary rat microglia [2] = experiment: Cell toxicity (dead cells, size <150 μm2) in coated fibrin (cFib) assay;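 note: share of dead cells sized under 150 µm2 at 10 µM in fibrin-stimulated microglia HTS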
primary rat microglia [3] = experiment: Cell toxicity (dead cells, size <150 μm2) in LPS assay
[4] = system: fibrin- and LPS-induced microglia activation; experiment: cells; format: cell-based, rat
[5] = system: LPS-induced microglia activation; experiment: Image-based assay of LPS-induced microglia activation (HTS and dose response); format: cell-based, rat; conditions: for inhibition at 10 µM: Rattus norvegicus, Microglia, read-out: LPS % inhibition
[6] = primary microglia HTS, 10 μM, fibrin-stimulated, cell size >800 μm^2 as marker of activation
[7] = primary microglia HTS, 10 μM, fibrin assay, cell size <150 μm^2 as marker of toxicity
[8] = primary microglia HTS, 10 μM, LPS assay, cell size <150 μm^2 as marker of toxicity
[9] = HTS of 1907 compounds, quadrant by fibrin and LPS inhibition
[10] = primary microglia HTS, 10 μM, LPS-stimulated, cell size >800 μm^2 as marker of activation
[11] = primary microglia HTS, fibrin stimulation, increased cell size (>800 μm^2) as marker of activation
[12] = primary microglia HTS, fibrin stimulation, decreased size (<150 μm^2) as marker of toxicity
[13] = primary microglia HTS, LPS stimulation, decreased size (<150 μm^2) as marker of toxicity
[14] = quadrant by fibrin and LPS inhibition in HTS of 1907 compounds
[15] = 48 h, primary microglia HTS, LPS stimulation, increased cell size (>800 μm^2) as marker of activation
[16] = primary microglia HTS, fibrin stimulation, activation = cell size >800 μm2
[17] = primary microglia HTS, fibrin stimulation, toxicity = cell size <150 μm2
[18] = primary microglia HTS, LPS stimulation, toxicity = cell size <150 μm2
[19] = 48 h, primary microglia HTS, LPS stimulation, activation = cell size >800 μm2
[20] = primary HTS, 10 μM, fibrin-stimulated primary microglia
[21] = primary HTS, 10 μM, fibrin assay, dead cells size <150 μm2
[22] = primary HTS, 10 μM, LPS assay, dead cells size <150 μm2
[23] = primary HTS, 10 μM, LPS-stimulated primary microglia

Molecule | Fibrin % cell toxicity (primary rat microglia [2]; [12]) | LPS % cell toxicity (primary rat microglia [3]; [13]) | Quadrant (FIG. 5b) [4, 14] | Fibrin % cell toxicity (primary rat microglia [2]; [17]) | LPS % cell toxicity (primary rat microglia [3]; [18]) | inhibition at 10 µM [1, 16] | inhibition at 10 µM [5, 19] | other results
NC(=O)NS(=O)(=O)c1ccc(N)cc1 [Sulfacarbamide] | – | – | – | – | – | – | – | inhibition at 10 µM [1, 6]: 45%; Fibrin % cell toxicity (primary rat microglia [2]; [7]): 1%; LPS % cell toxicity (primary rat microglia [3]; [8]): 0%; Quadrant (FIG. 5b) [4, 9]: Q4; inhibition at 10 µM [5, 10]: 46%
Cc1cccc(C)c1NC(=O)C1CCCCN1C (centres unmarked) [Mepivacaine] | 0% | 0% | Q4 | – | – | – | – | inhibition at 10 µM [1, 11]: 7%; inhibition at 10 µM [5, 15]: 10%
CC(C)(C)NC[C@H](O)COc1cccc2c1CCCC2=O [Levobunolol Hydrochloride] | – | – | Q4 | 0% | 0% | – | – | Fibrin % inhibition [1, 16]: −19%; LPS % inhibition ([5]; primary microglia HTS, LPS stimulation, activation = cell size >800 μm2): 12%
N#Cc1ccc2[nH]cc(CCCCN3CCN(c4ccc5oc(C(N)=O)cc5c4)CC3)c2c1 [Vilazodone] | – | – | – | – | – | – | – | inhibition at 10 µM [1, 6]: 1%; Fibrin % cell toxicity (primary rat microglia [2]; [7]): 1%; LPS % cell toxicity (primary rat microglia [3]; [8]): 1%; Quadrant (FIG. 5b) [4, 9]: Q4; inhibition at 10 µM [5, 10]: 27%
O=C(O)c1ccccc1Nc1cccc(C(F)(F)F)c1 [Flufenamic Acid] | – | – | Q4 | 0% | 0% | -20% | -1% | –
COC(=O)C1=C(C)NC(C)=C(C(=O)OCCN(C)Cc2ccccc2)C1c1cccc([N+](=O)[O-])c1 (centres unmarked) [Nicardipine] | 0% | 0% | Q4 | – | – | – | – | inhibition at 10 µM [1, 11]: 11%; inhibition at 10 µM [5, 15]: 12%
C[N+]1(C)[C@@H]2CC[C@H]1C[C@@H](OC(=O)C(CO)c1ccccc1)C2 (some centres unmarked) [Methylatropine Nitrate] | 1% | 0% | Q4 | – | – | – | – | inhibition at 10 µM [1, 11]: -2%; inhibition at 10 µM [5, 15]: 14%
CCC(=O)O[C@@H](O[P@](=O)(CCCCc1ccccc1)CC(=O)N1C[C@H](C2CCCCC2)C[C@H]1C(=O)O)C(C)C [Fosinopril] | – | – | Q4 | 1% | 0% | -52% | -1% | –
C[N+]1(C)[C@@H]2CC[C@H]1C[C@@H](OC(=O)C(O)c1ccccc1)C2 (some centres unmarked) [Homatropine Methylbromide] | – | – | Q4 | 1% | 0% | -18% | 12% | –
CO/N=C(\C(=O)N[C@@H]1C(=O)N2C(C(=O)O)=C(CSC(=O)c3ccco3)CS[C@H]12)c1csc(N)n1 [Ceftiofur Hydrochloride] | – | – | – | – | – | – | – | inhibition at 10 µM [1, 20]: 4%; Fibrin % cell toxicity (primary rat microglia [2]; [21]): 1%; LPS % cell toxicity (primary rat microglia [3]; [22]): 0%; Quadrant (FIG. 5b) ([4]; primary HTS, 10 μM): Q4; inhibition at 10 µM [5, 23]: 14%
Nonoxynol-9 | 0% | 0% | Q4 | – | – | – | – | Fibrin % inhibition [1, 11]: −7%; LPS % inhibition ([5]; primary microglia HTS, LPS stimulation, increased cell size (>800 μm^2) as marker of activation): 23%
CC1CCc2cc(F)cc3c(=O)c(C(=O)O)cn1c23 (centres unmarked) [Flumequine] | – | – | Q4 | 0% | 1% | -1% | 16% | –
[H]/N=C(/N)NS(=O)(=O)c1ccc(N)cc1 [Sulfaguanidine] | – | – | – | – | – | – | – | inhibition at 10 µM [1, 6]: -23%; Fibrin % cell toxicity (primary rat microglia [2]; [7]): 1%; LPS % cell toxicity (primary rat microglia [3]; [8]): 0%; Quadrant (FIG. 5b) [4, 9]: Q4; inhibition at 10 µM [5, 10]: 12%
CCCCCC(=O)O[C@]1(C(C)=O)CC[C@H]2[C@@H]3CCC4=CC(=O)CC[C@]4(C)[C@H]3CC[C@@]21C [Hydroxyprogesterone Caproate] | – | – | Q4 | 1% | 0% | 22% | 25% | –
CN(C)[C@@H]1C(O)=C(C(N)=O)C(=O)[C@@]2(O)C(O)=C3C(=O)c4c(O)ccc(Cl)c4[C@@](C)(O)[C@H]3C[C@@H]12 [Chlortetracycline] | – | – | – | – | – | – | – | inhibition at 10 µM [1, 20]: -15%; Fibrin % cell toxicity (primary rat microglia [2]; [21]): 1%; LPS % cell toxicity (primary rat microglia [3]; [22]): 0%; Quadrant (FIG. 5b) ([4]; primary HTS, 10 μM): Q4; inhibition at 10 µM [5, 23]: -6%
NCCc1cc(O)c(O)cc1O [Oxidopamine Hydrochloride] | 0% | 0% | Q4 | – | – | – | – | inhibition at 10 µM [1, 11]: 1%; inhibition at 10 µM [5, 15]: 19%
